Measured values published in patent publication US20090269365A1, “IMMUNOGENIC VACCINIA PEPTIDES AND METHODS OF USING SAME” (priority 2005, published 2009).

Experiments:
Format in all cases: cell-based, human
[1] = tested on: bulk vaccinia-specific CD8 CTL
CD4+ T-cells = settings: humans, Example 2
[2] = tested on: bulk vaccinia-specific CD8 CTL; remark: listed apart in the source
[3] = tested on: vaccinia-specific CD8 CTL clones; settings: read-out: EC50 in CTL assays

For VWINNSWKF [D5R 349-357], the “IFN-γ ICC response relative to DMSO background, in words” value [1] was “detection of IFN-γ-bright cells at a level above the background”.
In the case of KIQNVIIDECY [L1R 127-137], the “CD4+ T-cell reactivity, in words” value (CD4+ T-cells) is reported as “reacts with CD4+ T-cells”.
For YEFRKVKSY [A3L 264-272], the “IFN-γ ICC response relative to DMSO background, in words” value [1] was “positive” and the “IFN-γ secretion by bulk CTL, in words” value [2] was “positive”.
In the case of NPITKTTSDYQDSDVSQEVR [A33R 157-176], the “CD4+ T-cell reactivity, in words” value (CD4+ T-cells) is reported as “containing the epitope”.
TKTTSDYQDSDVSQ [A33R 160-173] was tested, and the “CD4+ T-cell reactivity, in words” value (CD4+ T-cells) was “epitope region has been further narrowed down”.
With EEQELLLLY [F3 41-49] the EC50 [3] was roughly 10 nM and the “IFN-γ secretion by bulk CTL, in words” value [2] was “again detectable”.
With WLKIKRDYL [A50R 395-403] the “net ICC response (peptide minus DMSO)” value [1] was roughly 1.55% and the “percentage of bulk CTL positive for IFN-γ by ICC” value [1] was 2.95%.
